Assay results taken from article PMC11382572, “Structural and kinetic insights into the stereospecific oxidation of R-2,3-dihydroxypropanesulfonate by DHPS-3-dehydrogenase from Cupriavidus pinatubonensis” (Chemical Science, 2024).

Molecular target: T1, DHPS-3-dehydrogenase (CpHpsN) (Cupriavidus pinatubonensis, UniProt Q46N53)
T1 construct: gene hpsN
Assay: X-ray crystal structure, […] Å, co-crystallization; enzyme inhibition assay
Type: biochemical

T1 sequence (Q46N53 whole entry): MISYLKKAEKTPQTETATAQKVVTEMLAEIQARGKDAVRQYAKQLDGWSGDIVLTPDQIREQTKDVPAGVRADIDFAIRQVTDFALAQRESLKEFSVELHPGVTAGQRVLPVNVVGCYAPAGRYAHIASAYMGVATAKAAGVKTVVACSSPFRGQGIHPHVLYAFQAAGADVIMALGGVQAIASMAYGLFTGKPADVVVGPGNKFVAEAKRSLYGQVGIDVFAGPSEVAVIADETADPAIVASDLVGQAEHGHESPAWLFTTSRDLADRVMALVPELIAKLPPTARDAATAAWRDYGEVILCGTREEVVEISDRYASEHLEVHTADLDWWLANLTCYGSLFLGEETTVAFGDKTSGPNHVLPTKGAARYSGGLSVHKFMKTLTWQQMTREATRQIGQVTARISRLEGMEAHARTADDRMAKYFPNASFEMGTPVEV

Compound: N[C@@H](CS(=O)(=O)O)C(=O)O [L-cysteate]
- IC50: 2400 µM
